Toxic doses and inconclusive results are not listed. Rule as the data show it: active = T/C of 150% or more; inactive = T/C below 125%.
Tested on: L1210 leukemia ip in BDF1 mice, survival T/C
Experiment: NCI In Vivo Anticancer Drug Screen. Data for tumor model L1210 Leukemia (intraperitoneal) in B6D2F1 (BDF1) mice
Conditions: endpoint: mean survival time, higher = longer survival
Outline: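 Each compound was tested against a transplantable tumor grown in mice. The endpoint was survival, with treated animals benchmarked against vehicle controls as a simple ratio.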

[1] = dose: 50.0 mg/kg/injection, schedule: Q01DX001 (ip), vehicle: carboxymethylcellulose (CMC)
[2] = dose: 100.0 mg/kg/injection, schedule: Q01DX001 (ip), vehicle: carboxymethylcellulose (CMC)
[3] = dose: 200.0 mg/kg/injection, schedule: Q01DX001 (ip), vehicle: carboxymethylcellulose (CMC)
[4] = dose: 400.0 mg/kg/injection, schedule: Q01DX001 (ip), vehicle: carboxymethylcellulose (CMC)
[5] = dose: 100.0 mg/kg/injection, schedule: Q04DX003 (ip), vehicle: Klucel (hydroxypropylcellulose) (HPC)
[6] = dose: 200.0 mg/kg/injection, schedule: Q04DX003 (ip), vehicle: Klucel (hydroxypropylcellulose) (HPC)
[7] = dose: 400.0 mg/kg/injection, schedule: Q04DX003 (ip), vehicle: Klucel (hydroxypropylcellulose) (HPC)
[8] = dose: 100.0 mg/kg/injection, schedule: Q04DX003 (ip), vehicle: saline with Tween-80
[9] = dose: 200.0 mg/kg/injection, schedule: Q04DX003 (ip), vehicle: saline with Tween-80
[10] = dose: 400.0 mg/kg/injection, schedule: Q04DX003 (ip), vehicle: saline with Tween-80
[11] = dose: 100.0 mg/kg/injection, schedule: Q01DX009 (ip), vehicle: saline with Tween-80
[12] = dose: 100.0 mg/kg/injection, schedule: Q01DX009 (ip), vehicle: saline
[13] = dose: 200.0 mg/kg/injection, schedule: Q01DX009 (ip), vehicle: saline
[14] = dose: 400.0 mg/kg/injection, schedule: Q01DX009 (ip), vehicle: saline
[15] = dose: 100.0 mg/kg/injection, schedule: Q01DX001 (ip), vehicle: saline
[16] = dose: 200.0 mg/kg/injection, schedule: Q01DX001 (ip), vehicle: saline
[17] = dose: 400.0 mg/kg/injection, schedule: Q01DX001 (ip), vehicle: saline
[18] = dose: 100.0 mg/kg/injection, schedule: Q04DX003 (ip), vehicle: saline
[19] = dose: 200.0 mg/kg/injection, schedule: Q04DX003 (ip), vehicle: saline
[20] = dose: 400.0 mg/kg/injection, schedule: Q04DX003 (ip), vehicle: saline

Measured: T/C

CCCCCCCCCC(C)CC1CCCCC1 (configuration not stated)
inactive: dose: 100.0 mg/kg/injection, schedule: Q01DX001 (ip), vehicle: saline with Tween-80 96 % of control | dose: 200.0 mg/kg/injection, schedule: Q01DX001 (ip), vehicle: saline with Tween-80 96 % of control

COC(=O)c1c(C)cc(C)c(C(C)=O)c1O
inactive: [1] 96 % of control | [2] 102 % of control | [3] 104 % of control | [4] 107 % of control

COC(=O)C(C(=O)OC)C(Br)C(Br)C(Br)c1ccccc1 (configuration not stated)
inactive: dose: 75.0 mg/kg/injection, schedule: Q01DX001 (ip), vehicle: other 91 % of control | dose: 150.0 mg/kg/injection, schedule: Q01DX001 (ip), vehicle: other 94 % of control | dose: 300.0 mg/kg/injection, schedule: Q01DX001 (ip), vehicle: other 96 % of control

CCCC(CCC#N)C(=O)c1ccccc1 (configuration not stated)
inactive: dose: 100.0 mg/kg/injection, schedule: Q01DX001 (ip), vehicle: Klucel (hydroxypropylcellulose) (HPC) 91 % of control | dose: 200.0 mg/kg/injection, schedule: Q01DX001 (ip), vehicle: Klucel (hydroxypropylcellulose) (HPC) 98 % of control | dose: 400.0 mg/kg/injection, schedule: Q01DX001 (ip), vehicle: Klucel (hydroxypropylcellulose) (HPC) 95 % of control

CCN(CC)Cc1ccccc1COC(=O)c1ccc([N+](=O)[O-])cc1
inactive: dose: 100.0 mg/kg/injection, schedule: Q04DX002 (ip), vehicle: Klucel (hydroxypropylcellulose) (HPC) 97 % of control | dose: 200.0 mg/kg/injection, schedule: Q04DX002 (ip), vehicle: Klucel (hydroxypropylcellulose) (HPC) 94 % of control | dose: 400.0 mg/kg/injection, schedule: Q04DX002 (ip), vehicle: Klucel (hydroxypropylcellulose) (HPC) 101 % of control

CC(=O)C1CCC2C3CC=C4CC(O)C=CC4(C)C3CCC12C (configuration not stated)
inactive: [5] 92 % of control | [6] 96 % of control | [7] 92 % of control

N#CC1CC2c3ccccc3C1c1ccccc12 (configuration not stated)
inactive: [8] 97 % of control | [9] 94 % of control | [10] 100 % of control

O=C1NC(=O)C2C(c3ccccc3)=NOC2N1 (configuration not stated)
inactive: dose: 100.0 mg/kg/injection, schedule: Q01DX009 (ip), vehicle: Klucel (hydroxypropylcellulose) (HPC) 103 % of control | [5] 97 % of control | dose: 200.0 mg/kg/injection, schedule: Q01DX009 (ip), vehicle: Klucel (hydroxypropylcellulose) (HPC) 103 % of control | [6] 90 % of control | dose: 400.0 mg/kg/injection, schedule: Q01DX009 (ip), vehicle: Klucel (hydroxypropylcellulose) (HPC) 98 % of control | [7] 97 % of control

Cc1ccc(S(=O)(=O)Oc2ccc3ccccc3c2)cc1
inactive: [11] 88 % of control | [8] 98 % of control | [9] 86 % of control | [10] 86 % of control

CS(=N)(=O)CC(N)C(=O)O (configuration not stated)
inactive: [12] 95 % of control | [13] 114 % of control | [14] 95 % of control

CCCC[P+](CO)(CCCC)CCCC
inactive: dose: 30.0 mg/kg/injection, schedule: Q01DX001 (ip), vehicle: saline 102 % of control

OCC(O)COc1ccccc1 (configuration not stated)
inactive: [15] 108 % of control | [16] 96 % of control | [17] 96 % of control

CCOP(=O)(OCC)OCCOCCOP(=O)(OCC)OCC
inactive: dose: 8.8 mg/kg/injection, schedule: Q01DX Z (ip), vehicle: saline 98 % of control | dose: 13.3 mg/kg/injection, schedule: Q01DX Z (ip), vehicle: saline 110 % of control | dose: 20.0 mg/kg/injection, schedule: Q01DX Z (ip), vehicle: saline 96 % of control

C=CCCC/C(C)=N/NS(=O)(=O)c1ccc(C)cc1
inactive: dose: 50.0 mg/kg/injection, schedule: Q01DX009 (ip), vehicle: saline with Tween-80 112 % of control | [11] 92 % of control | dose: 200.0 mg/kg/injection, schedule: Q01DX009 (ip), vehicle: saline with Tween-80 106 % of control

NC(=O)Oc1ccccc1
inactive: [15] 98 % of control | [12] 102 % of control | [18] 95 % of control | [16] 98 % of control | [13] 111 % of control | [19] 98 % of control | [17] 96 % of control | [14] 120 % of control | [20] 103 % of control

C[C@@]1(O)CCCC[C@H]1O
inactive: [12] 95 % of control | [18] 106 % of control | [13] 105 % of control | [19] 103 % of control | [14] 96 % of control | [20] 92 % of control

COc1c2c(c3c(c1O)c(=O)c1ccccc1n3C)OCO2
inactive: [1] 104 % of control | [2] 90 % of control | [3] 90 % of control

CCCCOC(=O)c1ccc(NC(=O)CCC(C)Cl)cc1 (configuration not stated)
inactive: [18] 94 % of control | [19] 90 % of control | [20] 92 % of control

CC1CN1P(=S)(N1CCCCC1)N1CC1C (configuration not stated)
inactive: [1] 102 % of control | [2] 91 % of control | [3] 91 % of control | [4] 105 % of control | dose: 600.0 mg/kg/injection, schedule: Q01DX001 (ip), vehicle: carboxymethylcellulose (CMC) 103 % of control | dose: 800.0 mg/kg/injection, schedule: Q01DX001 (ip), vehicle: carboxymethylcellulose (CMC) 101 % of control

Cc1ccc([N+](=O)[O-])cc1NC(=O)Sc1ccc(C(C)(C)C)cc1
inactive: [5] 98 % of control | [6] 98 % of control | [7] 98 % of control

Cc1ccc(C2CC2S(=O)(=O)c2ccccc2)cc1 (configuration not stated)
inactive: [15] 108 % of control | [16] 112 % of control | [17] 102 % of control

— PubChem BioAssay AID248 (DTP/NCI, 2004)
